In the supplement of paper PMC11208160:

Assay: recombinant barcode read abundance after kanamycin selection (control-corrected) (log10(CPM+1)); higher = more efficient recombination; sequences stand for … in AGTGCAGAGAAAATCGGCCAGTTTTCTCTGCCTGCAGTCCGCATGCCGT…AGATTTATGCAGCGGACTGCCTTTCTCCCAAAGTGATAAACCGGACAGTATCATGGACCGGTTTTCCCGGTAATCCGTATTTGCAAGGTTGGTTTCACT; site = the 11-nt target
Experimental: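 Pooled E. coli target-specificity screen for the IS621 bridge recombinase. Each library plasmid pairs an 11-nt target (CT core) with a bridge RNA whose target-binding loop (9-nt LTG + 4-nt RTG) is reprogrammed; the rest of the 177-nt WT IS621 bridge RNA scaffold is fixed. The plasmid is co-electroporated with a WT donor plasmid; recombinase is induced with 0.1 mM IPTG and recombinants are selected on kanamycin. Recombinant barcodes are sequenced, converted to CPM, averaged over two biological replicates and corrected by the unselected control CPM. Molecule = full bridge RNA written as DNA: LTG = specificity nt 1-9, RTG = reverse complement of specificity nt 8-11, in the WT scaffold.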
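Note: IS621 recombinase and bridge RNA in Escherichia coli cells.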

| Sequence | recombinant barcode read abundance (log10) |
| --- | --- |
| ACAGTCGCTTGGGTTCTAACCTGTTGCCT (site ACAGACGCTAG) | 0.229 |
| ACAGTCGCTTGGGTTCTAACCTGTTGCCT (site ACAGCCGCTAG) | 0.0854 |
| ACAGTCGCTTGGGTTCTAACCTGTTGCCT (site ACAGGCGCTAG) | 0 |
| ACAGTCGCTTGGGTTCTAACCTGTTGCCT (site ACAGTCGCTAG) | 1.4 |
| ACATAAGCTTGGGTTCTAACCTGTTGCCT (site ACATAAGCTAG) | 1.1 |
| ACATAAGCTTGGGTTCTAACCTGTTGCCT (site CATCGGACTCT) | 0.116 |
| ACATATACTTGGGTTCTAACCTGTTGCTT (site ACATATACTAA) | 0.0772 |
| ACATATACTTGGGTTCTAACCTGTTGCTT (site CGTAGCCCTCC) | 0.125 |
| ACATGAACTTGGGTTCTAACCTGTTGCAT (site ACATGAACTAT) | 1.38 |
| ACATGAACTTGGGTTCTAACCTGTTGCAT (site ACATGCACTAT) | 0.111 |
| ACATGAACTTGGGTTCTAACCTGTTGCAT (site ACATGGACTAT) | 0.141 |
| ACATGAACTTGGGTTCTAACCTGTTGCAT (site ACATGTACTAT) | 0.0493 |
| ACATGACCTTGGGTTCTAACCTGTTGCTT (site ACATGACCTAA) | 0.223 |
| ACATGACCTTGGGTTCTAACCTGTTGCTT (site ATATGAGCTAA) | 0.0302 |
| ACATGGGCTTGGGTTCTAACCTGTTGCCG (site ACATGGGCTCG) | 0.695 |
| ACATGGGCTTGGGTTCTAACCTGTTGCCG (site ACATGTGCTCT) | 0.266 |
| ACATGTCCTTGGGTTCTAACCTGTTGCGT (site ACATGTCCTAA) | 0.141 |
| ACATGTCCTTGGGTTCTAACCTGTTGCGT (site ACATGTCCTAC) | 2.39 |
| ACATGTCCTTGGGTTCTAACCTGTTGCGT (site ACATGTCCTAG) | 0.23 |
| ACATGTCCTTGGGTTCTAACCTGTTGCGT (site ACATGTCCTAT) | 1.48 |
| ACATGTGCTTGGGTTCTAACCTGTTGCAG (site ACATGGGCTCG) | 0.0637 |

| Sequence | recombinant barcode read abundance (log10) |
| --- | --- |
| ACATGTGCTTGGGTTCTAACCTGTTGCAG (site ACATGTGCTCT) | 1.72 |
| ACATTAGCTTGGGTTCTAACCTGTTGCAA (site ACATTAGCTTT) | 0.609 |
| ACATTAGCTTGGGTTCTAACCTGTTGCAA (site ACTTTAGCTCT) | 0.0541 |
| ACCAAATCTTGGGTTCTAACCTGTTGCTA (site ACCAAATCTCG) | 0.356 |
| ACCAAATCTTGGGTTCTAACCTGTTGCTA (site ACCAAATCTTA) | 0.23 |
| ACCAAGTCTTGGGTTCTAACCTGTTGCGT (site ACCAAGTCTAC) | 1.98 |
| ACCAAGTCTTGGGTTCTAACCTGTTGCGT (site ACCAAGTCTGC) | 0.326 |
| ACCAATACTTGGGTTCTAACCTGTTGCCT (site ACCAATACTAG) | 0.0309 |
| ACCAATACTTGGGTTCTAACCTGTTGCCT (site ACCAATCCTAG) | 0.122 |
| ACCAATACTTGGGTTCTAACCTGTTGCCT (site ACCAATGCTAG) | 0.939 |
| ACCAATACTTGGGTTCTAACCTGTTGCCT (site ACCAATTCTAG) | 0.0138 |
| ACCAATGCTTGGGTTCTAACCTGTTGCCT (site ACCAATACTAG) | 0.182 |
| ACCAATGCTTGGGTTCTAACCTGTTGCCT (site ACCAATCCTAG) | 0.136 |
| ACCAATGCTTGGGTTCTAACCTGTTGCCT (site ACCAATGCTAG) | 0.0431 |
| ACCAATGCTTGGGTTCTAACCTGTTGCCT (site ACCAATTCTAG) | 0.163 |
| ACCAATTCTTGGGTTCTAACCTGTTGCCT (site ACCAATACTAG) | 0.059 |
| ACCAATTCTTGGGTTCTAACCTGTTGCCT (site ACCAATCCTAG) | 0.111 |
| ACCAATTCTTGGGTTCTAACCTGTTGCCT (site ACCAATGCTAG) | 0.0727 |
| ACCAATTCTTGGGTTCTAACCTGTTGCCT (site ACCAATTCTAG) | 0.483 |
| ACCCAACCTTGGGTTCTAACCTGTTGCCT (site ACCCAAACTAG) | 0.242 |
| ACCCAACCTTGGGTTCTAACCTGTTGCCT (site ACCCAACCTAG) | 1.58 |

| Sequence | recombinant barcode read abundance (log10) |
| --- | --- |
| ACCCAACCTTGGGTTCTAACCTGTTGCCT (site ACCCAAGCTAG) | 0.104 |
| ACCCAACCTTGGGTTCTAACCTGTTGCCT (site ACCCAATCTAG) | 0.0366 |
| ACCCAATCTTGGGTTCTAACCTGTTGCCT (site ACCCAAACTAG) | 0.266 |
| ACCCAATCTTGGGTTCTAACCTGTTGCCT (site ACCCAACCTAG) | 0.0978 |
| ACCCAATCTTGGGTTCTAACCTGTTGCCT (site ACCCAAGCTAG) | 0.207 |
| ACCCAATCTTGGGTTCTAACCTGTTGCCT (site ACCCAATCTAG) | 1.47 |
| ACCCACACTTGGGTTCTAACCTGTTGCCG (site ACCCACACTCG) | 1.8 |
| ACCCACACTTGGGTTCTAACCTGTTGCCG (site TCCCACACTTG) | 0.111 |
| ACCGAGACTTGGGTTCTAACCTGTTGCGG (site ACCGAGACTCC) | 2.7 |
| ACCGAGACTTGGGTTCTAACCTGTTGCGG (site AGTGAGACTCC) | 0.0628 |
| ACCGAGTCTTGGGTTCTAACCTGTTGCCT (site AACGAGTCTAG) | 0.202 |
| ACCGAGTCTTGGGTTCTAACCTGTTGCCT (site ACCGAGTCTAG) | 1.85 |
| ACCGAGTCTTGGGTTCTAACCTGTTGCCT (site AGCGAGTCTAG) | 0.164 |
| ACCGAGTCTTGGGTTCTAACCTGTTGCCT (site ATCGAGTCTAG) | 0.387 |
| ACCGCTACTTGGGTTCTAACCTGTTGCCT (site ACCGCTACTAG) | 0.176 |
| ACCGCTACTTGGGTTCTAACCTGTTGCCT (site AGCGCTACTAG) | 0.0813 |
| ACCGGGACTTGGGTTCTAACCTGTTGCCT (site ACCGAGACTAG) | 0.285 |
| ACCGGGACTTGGGTTCTAACCTGTTGCCT (site ACCGCGACTAG) | 0.159 |
| ACCGGGACTTGGGTTCTAACCTGTTGCCT (site ACCGGGACTAG) | 1.14 |
| ACCGGGACTTGGGTTCTAACCTGTTGCCT (site ACCGTGACTAG) | 0 |
| ACCGGTACTTGGGTTCTAACCTGTTGCCT (site ACCAGTACTAG) | 0.408 |

| Sequence | recombinant barcode read abundance (log10) |
| --- | --- |
| ACCGGTACTTGGGTTCTAACCTGTTGCCT (site ACCCGTACTAG) | 0.014 |
| ACCGGTACTTGGGTTCTAACCTGTTGCCT (site ACCGGTACTAG) | 0.508 |
| ACCGGTACTTGGGTTCTAACCTGTTGCCT (site ACCTGTACTAG) | 0.0135 |
| ACCTAACCTTGGGTTCTAACCTGTTGCAG (site ACCTAACCTCT) | 1.22 |
| ACCTAACCTTGGGTTCTAACCTGTTGCAG (site TCCTAACCTCA) | 0.0355 |
| ACCTGTCCTTGGGTTCTAACCTGTTGCCT (site ACCTGACCTAG) | 0.269 |
| ACCTGTCCTTGGGTTCTAACCTGTTGCCT (site ACCTGCCCTAG) | 0.0321 |
| ACCTGTCCTTGGGTTCTAACCTGTTGCCT (site ACCTGGCCTAG) | 0.173 |
| ACCTGTCCTTGGGTTCTAACCTGTTGCCT (site ACCTGTCCTAG) | 0.986 |
| ACCTTAACTTGGGTTCTAACCTGTTGCCT (site ACCTTAACTAG) | 0.166 |
| ACCTTAACTTGGGTTCTAACCTGTTGCCT (site ATCTCAACTAG) | 0 |
| ACCTTGCCTTGGGTTCTAACCTGTTGCTA (site ACCTTGCCTTA) | 0.478 |
| ACCTTGCCTTGGGTTCTAACCTGTTGCTA (site TGGAGAGCTCT) | 0.0461 |
| ACGAACGCTTGGGTTCTAACCTGTTGCCT (site ACGAACGCTAG) | 1.64 |
| ACGAACGCTTGGGTTCTAACCTGTTGCCT (site ACGACCGCTAG) | 0.344 |
| ACGAACGCTTGGGTTCTAACCTGTTGCCT (site ACGAGCGCTAG) | 0.085 |
| ACGAACGCTTGGGTTCTAACCTGTTGCCT (site ACGATCGCTAG) | 0.14 |
| ACGAAGCCTTGGGTTCTAACCTGTTGCCT (site ACGAAGCCTAG) | 1.35 |
| ACGAAGCCTTGGGTTCTAACCTGTTGCCT (site GCGACGCCTAG) | 0.19 |
